Values quoted from earlier work in patent US6001882A (priority 1997, dated 1999).

What was measured:
[1] = system: psoriasis; conditions: systemic, with long wavelength ultraviolet light; cited from earlier work
[2] = cited from earlier work

Compound | amelioration of psoriasis [1] | conversion on exposure to visible light [2]
C=Cc1c2[n-]c(c1C)/C=c1\[n-]/c(c(C)c1C=C)=C\c1[n-]c(c(CCC(=O)O)c1C)/C=c1\[n-]c(c(C)c1CCC(=O)O)=C2.[Sn+4] [tin-protoporphyrin] | effects amelioration of psoriasis in psoriatic patients | 
Cc1cc(O)c2c(=O)c3c(O)cc(O)c4c5c(O)cc(O)c6c(=O)c7c(O)cc(C)cc7c(c65)c(c2c1)c34 [protohypericin] |  | converted to hypericin upon exposure to visible light
